Test results: patent US10111950B2, “Modified glycolipids and methods of making and using the same” (Vaccinex, Inc., priority 2013, dated 2018)
Blank lines part the entries; values can stand above or below the compound they belong to.

Assays:
[1] = target: T1, plate bound mCD1d (Mus musculus, UniProt P11609); test: Ligand binding to plate bound mCD1d with and without UV activation, ELISA using mAb L363; design: species or system murine; details: for dissociation of CD1d:glycolipid complex after 3 days (L363 ELISA): 3 days in PBS+0.05% Triton X-100 at 25° C.; for CD1d/glycolipid complex formation detected by mAb L363 ELISA: plate bound mCD1d 10 μg/ml, glycolipid 5 μM
T1 construct: recombinant soluble murine CD1d (mCD1d) was diluted to 400 μg/ml in PBS pH 7.2
T1 sequence (P11609 22-305 limits assumed): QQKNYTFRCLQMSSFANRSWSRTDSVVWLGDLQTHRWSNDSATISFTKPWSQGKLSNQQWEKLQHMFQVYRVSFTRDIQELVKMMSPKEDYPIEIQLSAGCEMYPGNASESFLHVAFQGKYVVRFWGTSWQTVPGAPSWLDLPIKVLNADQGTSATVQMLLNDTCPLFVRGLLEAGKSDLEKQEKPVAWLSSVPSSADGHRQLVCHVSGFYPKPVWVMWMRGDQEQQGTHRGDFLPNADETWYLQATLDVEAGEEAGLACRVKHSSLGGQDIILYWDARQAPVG
T1 sequence (P01887 21-119 partner): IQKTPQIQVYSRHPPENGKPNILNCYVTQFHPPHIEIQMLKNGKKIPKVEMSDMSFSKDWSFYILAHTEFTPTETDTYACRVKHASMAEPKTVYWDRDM
Experimental: (§1) The ligand binding affinity of plate bound mCD1d was measured by ELISA using mAb L363 to detect murine CD1d/αGalCer complexes. ELISA plates were coated with mCD1d (10 μg/ml, 30 μl/well) overnight at 4° C. in PBS pH 8.2. Supernatant was then removed along with any unbound protein. Glycolipids (5 μM, 30 μl/well) were loaded and allowed to incubate overnight at 25° C. Supernatant was again removed and the complexes were washed three times with PBS to remove any unbound glycolipid. For those complexes that underwent UV activation, UV crosslinking was performed in solution (30 μl/well PBS) and at a fixed wavelength of 365 nm from a UV lamp (RAD-FREE long wave UV lamp, Schleicher & Schuell). The UV lamp was placed one inch from the sample and the sample was allowed to sit on ice for 1 hr.

[2] = target: T2, soluble recombinant mCD1d (Mus musculus, UniProt P11609); test: Direct comparison of DB12-8 and 7DW8-5 complexes with soluble recombinant mCD1d, L363 ELISA; format: binding, murine
T2 construct: A soluble recombinant mCD1d protein (10 μg/ml) was loaded with glycolipids
T2 sequence (P11609 22-305 limits assumed): T1 sequence (P11609 22-305 limits assumed)
T2 sequence (P01887 21-119 partner): T1 sequence (P01887 21-119 partner)
Experimental: as §1
(§2) The ligand binding affinity of plate bound mCD1d was detected by iNKT DN3A4-1.2 hybridoma stimulation assay. mCD1d (10 μg/ml) was loaded with glycolipids (5 μM) overnight at 25° C. ELISA plates were coated with mCD1d:GC complexes (2.5 μg/ml, 30 μl/well) for 12-18 hours at 4° C. in PBS pH 8.2. Supernatant was then removed and the complexes were washed three times with PBS to remove any unbound glycolipid and protein. For those complexes that underwent UV activation, UV crosslinking was performed in solution (30 μl/well PBS) and at a fixed wavelength of 365 nm from a UV lamp (RAD-FREE long wave UV lamp, Schleicher & Schuell). The UV lamp was placed one inch from the sample and the sample was allowed to sit on ice for 1 hr. Supernatant was then removed and the complexes were washed three times with PBS to remove any unbound glycolipid and protein.
A soluble recombinant mCD1d protein (10 μg/ml) was loaded with glycolipids (5 μM) overnight at 25° C. in PBS pH8.2 with 0.05% tyloxapol. The mCD1d:GC complexes (10 μg/ml, 30 μl/well) were coated onto the high binding ELISA plates, overnight at 4° C. UV exposure and incubation to allow dissociation over 3 days was performed as described in Examples 6 and 7.

[3] = system: iNKT hybridoma DN3A4-1.2 with human CD1d transfected HeLa cells; test: iNKT hybridoma stimulation (IL-2 secretion) with hCD1d expressing HeLa cells; format: cell-based; details: BPGC 5 to 0.01 μg/ml for 3 hrs, hybridoma 18 hours
Experimental: The activated natural killer cells were again calculated based on those secreting IL-2. Specifically, plate bound human CD1d transfected HeLa cells (10,000 cells in 100 μl medium) were plated in a 96 well tissue culture plate and allowed to adhere to the plates for 30 minutes at 37° C. Adherent HeLa cells were treated with varying BPGC concentrations ranging between 5 and 0.01 μg/ml in 100 μl for 3 hrs at 37° C. Glycolipid not taken up by cells was removed by washing with medium. To detect the BPGC presentation by CD1d, iNKT hybridoma DN3A4-1.2 (5000 cells in 100 μl volume) was added and the stimulation was detected by the level of IL-2 secreted in the supernatant following incubation at 37° C. for 18 hours.

[4] = system: iNKT hybridoma DN3A4-1.2 with plate bound mCD1d; test: Plate bound mCD1d:glycolipid complexes with and without UV activation, iNKT DN3A4-1.2 hybridoma stimulation assay (IL-2 ELISA); format: cell-based, murine; details: for iNKT stimulation post-dissociation (IL-2 ELISA): after 3 days dissociation, non-crosslinked mCD1d complexes (UV state not stated for 7DW8-5)
Experimental: as §2

[5] = system: mCD1d.CEA fusion protein; test: Direct comparison of DB12-8 and 7DW8-5 complexes with mCD1d.CEA fusion protein, L363 ELISA; format: binding, murine
Experimental: as §1, §2
mCD1d.CEA (10 μg/ml), a recombinant mCD1d protein genetically fused with a single chain Fv antibody fragment specific for the tumor associated antigen CEA, was loaded with glycolipids (5 μM) overnight at 25° C. in PBS pH8.2 with 0.05% tyloxapol. The mCD1d.CEA:GC complexes (10 μg/ml, 30 μl/well) were coated onto wells of high binding ELISA 96 well plates overnight at 4° C. UV exposure and incubation to allow dissociation over 3 days were performed as described in Examples 6 and 7.
A scale up of the complex formation in solution was performed using a 10-fold increased concentration of protein and glycolipid and the results are shown in FIG. 9C-9D. mCD1d.CEA (100 μg/ml) was loaded with DB12-8 (50 μM respectively) overnight at 25° C. in PBS pH8.2 with 0.05% tyloxapol. DB12-8:mCD1d.CEA complexes were diluted down to 10 μg/ml and were coated onto the high binding ELISA plates (30 μl/well), overnight at 4° C. UV exposure and incubation to allow dissociation over 3 days were performed as described in Examples 6 and 7.

[6] = system: iNKT cells; details: repeated stimulation; cited from earlier work

dissociation of CD1d:glycolipid complex after 3 days (L363 ELISA) ([1]; UV irradiated 365 nm 1 hr): no significant dissociation
dissociation after 3 days (L363 ELISA signal) ([2]; UV exposure at 365 nm): no dissociation was observed
affinity to CD1d, complex detected by L363 ELISA ([2]; mCD1d 10 μg/ml, glycolipid 5 μM): showed affinity to CD1d
dissociation after 3 days (L363 ELISA signal) ([2]; non UV-crosslinked state): dissociated almost completely
Compound: CCCCCCCCCCCCCC[C@@H](O)[C@@H](O)[C@H](COC1OC(CO)C(O)C(O)C1O)NC(=O)CCCCCCCCCCOCc1cccc(C(=O)c2ccccc2)c1 (stereo partly drawn) [DB12-8]
CD1d/glycolipid complex formation detected by mAb L363 ELISA [1]: highest levels of immunoreactive complex formation
iNKT stimulation, level of IL-2 secreted in the supernatant [3]: stimulatory toward iNKT cells
iNKT hybridoma stimulation following UV crosslinking (IL-2 ELISA) ([4]; UV crosslinked 365 nm 1 hr): stimulated iNKT hybridoma better than other glycolipids
iNKT stimulation post-dissociation (IL-2 ELISA) [4]: some, albeit reduced, iNKT stimulation even after dissociation
binding to CD1d ([4]; following UV crosslinking): bound efficiently to CD1d
reduction in OD450 after 3 days ([5]; 10-fold scale up (mCD1d.CEA 100 μg/ml, DB12-8 50 μM), UV-crosslinked samples): no detectable reduction in OD450
decrease in OD450 after 3 days incubation ([5]; 10-fold scale up (mCD1d.CEA 100 μg/ml, DB12-8 50 μM), non-crosslinked complexes): ~75%
dissociation after 3 days (L363 ELISA signal) ([5]; UV exposure at 365 nm): no dissociation was observed
affinity to CD1d, complex detected by L363 ELISA ([5]; mCD1d.CEA 10 μg/ml, glycolipid 5 μM): showed affinity to CD1d
L363 ELISA signal following UV-crosslinking ([5]; mCD1d.CEA complex): increases significantly
dissociation after 3 days (L363 ELISA signal) ([5]; non UV-crosslinked state): almost completely dissociated

dissociation of CD1d:glycolipid complex after 3 days (L363 ELISA) ([1]; UV irradiated 365 nm 1 hr): no significant dissociation
Compound: CCCCCCCCCCCCCC[C@@H](O)[C@@H](O)[C@H](COC1OC(CO)C(O)C(O)C1O)NC(=O)CCCCCCCCCCCOCc1cccc(C(=O)c2ccccc2)c1 (stereo partly drawn) [DB12-9]
CD1d/glycolipid complex formation detected by mAb L363 ELISA [1]: highest levels of immunoreactive complex formation
iNKT stimulation post-dissociation (IL-2 ELISA) [4]: some, albeit reduced, iNKT stimulation even after dissociation

dissociation of CD1d:glycolipid complex after 3 days (L363 ELISA) ([1]; UV irradiated 365 nm 1 hr): dissociated after 3 days
dissociation of CD1d:glycolipid complex after 3 days (L363 ELISA) ([1]; not UV irradiated): dissociated after 3 days
Compound: CCCCCCCCCCCCCCCCCCCCCCCCCC(=O)N[C@@H](CO[C@H]1O[C@H](CO)[C@H](O)[C@H](O)[C@H]1O)[C@H](O)[C@H](O)CCCCCCCCCCCCCC [KRN7000, (2S,3S,4R)-1-O-(α-D-galactopyranosyl)-N-hexacosanoyl-2-amino-1,3,4-octadecanetriol, reference compound]

Compound: CCCCCCCCCCCCCCCCCCCCCCCCCC(=O)N[C@@H](CO[C@H]1O[C@H](CO)[C@H](O)[C@H](O)[C@H]1O)[C@H](O)[C@H](O)CCCCCCCCCCCCCC [αGalCer, α-galactosylceramide]
iNKT cell response to stimulation with free αGalCer [6]: results in iNKT cell anergy
